Source: US6080753A, “Stimulating nerve growth with immunophilins” (Johns Hopkins University School of Medicine, priority 1997, dated 2000)
“Also recorded” adds a separate entry of the source. Values belong to the compound of their own block, whether it stands above or below them.

Legend:
[1] = test system: PC-12 cells; assay: Neurite outgrowth in PC-12 cells; type: cell-based
Description: PC-12 cells were maintained at 37° C., 5% CO2, in Dulbecco's modified Eagle medium (DMEM) supplemented with 10% heat-inactivated horse serum and 5% heat-inactivated fetal bovine serum. For differentiation in NGF, cells were plated at 1×10^5 in 35 mm culture wells coated with rat tail collagen at 5 μg/cm^2, and allowed to attach before replacing the media with DBMEM supplemented with 2% fetal horse serum, 1% fetal calf serum, NGF and/or FK506 or rapamycin. For quantitation of neurite outgrowth, random photographs were made (3-4 per well), and process bearing neurons were counted with processes being greater than 5 μm. Experimental conditions were unknown by the photographer and cell counter. Four separate experiments were performed in duplicate for each data point presented. Neurites were identified and counted from approximately 100 cells per photograph. Thus, neurites from 1200-1600 cells were counted per data point.

[2] = test system: dorsal root ganglia; assay: Neurite/axon outgrowth in dorsal root ganglia explant cultures; type: cell-based, rat; details: for time at which growth begins to plateau / time by which some outgrowth is evident: all concentrations
Description: Stage E16 embryos were removed from pregnant Sprague-Dawley rats and the dorsal root ganglia dissected. Whole ganglia explants were cultured in collagencoated 35 mm dishes (Falcon) using N2 medium (Dulbecco's Modified Eagle medium and Ham's F12 medium mixed 1:1 and supplemented with progesterone, selenium, insulin, putrescine, glucose, and penicillin-streptomycin) at 37° C. in a 15% CO2 environment. Sensory ganglia were treated with various concentrations of NGF and/or FK506 or rapamycin or anti-NGF antibody. Ganglia were observed every 2-3 days under phase-contrasting using an Olympus IMT-2 inverted microscope, and measurements of axon length were made. The axonal field of each ganglion was divided into four quadrants, and the length of the longest axons in each quadrant was measured in microns using an eye-piece micrometer. The average of these measurements was taken as the axon length for the ganglion.

[3] = target: T1, FKBP (Rattus norvegicus, UniProt Q62658); assay: [3H]FK506 autoradiography on dorsal root ganglia cultures; type: binding; details: 1 μM unlabeled FK506, 1 nM [3H]FK506
Description: For [^3 H]FK506 autoradiography, dorsal root ganglia cultures were grown on chamber slides coated with collagen, 5 μg/cm^2. Cultures were fixed on the slide with ice cold 4.0% freshly depolymerized paraformaldehyde in 0.1 M sodium phosphate buffer, pH 7.4, for 1 hr, then washed two times with phosphate buffered saline. Fixed cultures were labeled with [^3 H]FK506 by pre-incubating the slides in a buffer consisting of 50 mM Hepes, 2 mg/ml bovine serum albumin, 0.02% Tween-20 pH 7.4. This was followed by incubation in the same assay buffer containing 1 nM [^3 H]FK506. Non-specific binding was determined by adding 1 μM unlabeled FK506. The slides were then rinsed 4×5 min prior to drying, and juxtaposed to tritium-sensitive film for 10 days.

[4] = target: T1, FKBP; assay: [3H]FK506 binding to PC-12 cell homogenates; design: endogenous in cells; host or cells: PC-12 cells; details: for [3H]FK506 binding following NGF treatment: PC-12 cells, NGF 50 ng/ml
Description: Levels of FKBP in PC-12 cells were obtained from Scatchard analysis of [^3 H]FK506 binding curves. Cultures were scraped from the culture wells and homogenized in 10 volumes of 50 mM Tris-HCl, pH 7.4, 1 mM EDTA, 100 μg/ml phenylmethylsulfonylfluoride and centrifuged at 40,000×g for 20 min at 4° C. Protein was determined by the Coomassie blue dye binding assay using bovine serum albumin as a standard. Binding of 250 pM [^3 H]dihydro FK506 (86.5 Ci/mmol, DuPont/NEN) was assessed for samples containing 5 μg soluble protein in a final volume of 0.4 ml assay buffer containing 50 mM Tris-HCl, pH 7.4, 2 mg/ml BSA and varying concentrations of unlabeled FK506. After 60 min incubation at 25° C., 0.35 ml was layered over a 0.8 ml column of LH-20 Sephadex (Pharmacia LKB), pre-equilibrated with assay buffer. The column was further washed with 0.4 ml of assay buffer, the eluates collected, mixed with Formula 963 (DuPont/NEN) and counted in a Beckman scintillation counter. Specific binding was determined by subtracting binding obtained in the presence of 1 μM unlabeled FK506 from total [^3 H]FK506 bound.

[5] = target: T1, FKBP; assay: [3H]FK506 binding in rat tissues (Table 1A); design: from tissue; host or cells: rat sciatic nerve, cerebral cortex, thymus, spleen; neonatal rat forebrain and growth cones
Text: If FKBP were physiologically associated with neuronal process extension in the actions of GAP-43, then one might anticipate substantial levels of FKBP in peripheral nerve. Accordingly, we measured [^3 H]FK-506 binding in rat sciatic nerve, as well as in growth cones isolated from 2-day-old rat pups, and compared values with those of the cerebral cortex and several peripheral tissues.
For axon transport experiments, classic ligature techniques were used following the methods of Tetzlaff et al. One week following sciatic nerve crush two collection ligatures (510 sutures) were placed on the nerve approximately 10 mm apart with the distal most ligature positioned 10 mm proximal to the initial crush sight. Six hours later, 5-3 mm segments of the nerve were collected from regions proximal to, distal to, and between the collection ligatures as illustrated in FIG. 5. The nerve segments were prepared for [^3 H]FK-506 binding assays by homogenizing in 10 volumes of 50 mM Tris-HCl, pH 7.4. Homogenates were centrifuged at 15,000×g for 20 min at 4° C., and supernatants were collected and assayed for total protein concentration using the Coomassie blue dye binding assay (Pearce). [^3 H]FK-506 binding was carried out as described (4) on aliquots containing 2 ug of total soluble protein in a final volume of 0.4 ml assay buffer consisting of 50 mM Tris-HCl, pH 7.4, 2 mg/ml bovine serum albumin, 250 pM [^3 H]FK-506, and varying concentrations of unlabeled FK-506. Following incubation at 25° C. for 60 min, 0.35 ml was layered over a 0.8 ml column of LH-20 Sephadex (Pharmacia LKB) and washed with 0.4 ml of assay buffer. The eluates were collected and counted in a scintillation counter.

T1 sequence (Q62658 whole entry): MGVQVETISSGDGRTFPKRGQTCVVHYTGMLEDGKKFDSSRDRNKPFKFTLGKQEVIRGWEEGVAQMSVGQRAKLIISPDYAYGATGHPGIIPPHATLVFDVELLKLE

Compound: C=CC[C@@H]1/C=C(\C)C[C@H](C)C[C@H](OC)[C@H]2O[C@@](O)(C(=O)C(=O)N3CCCC[C@H]3C(=O)O[C@H](/C(C)=C/[C@@H]3CC[C@@H](O)[C@H](OC)C3)[C@H](C)[C@@H](O)CC1=O)[C@H](C)C[C@@H]2OC [FK506]
kind of effect on neuritic processes [1]: primarily increases neurite length
reduction of the NGF concentration needed to elicit maximal outgrowth ([1]; FK506 100 nM): 20-50 fold
effect on NGF-stimulated neurite outgrowth ([1]; FK506 100 nM, 48 hr): markedly augments the effect of NGF
additional neurite outgrowth at maximal NGF ([1]; FK506 100 nM, NGF 10-100 ng/ml): fails to produce additional neurite outgrowth
neurite outgrowth in the absence of NGF ([1]; no NGF): fails to elicit neurite outgrowth; also recorded: fails to stimulate neurite outgrowth
EC50 ([1]; with NGF 1 ng/ml, 48 hr, read-out: half maximal effects on neurite outgrowth): ~0.1 nM
FK506 concentration eliciting the same maximal outgrowth as 50 ng/ml NGF ([1]; with submaximal NGF 1 ng/ml, 48 hr): 1 nM
neurite outgrowth compared with no added growth factor ([2]; FK506 1 pM): greater than in its absence
neurite/axon outgrowth ([2]; FK506 1 μM alone): produces a similar neurotrophic effect; also recorded: abundant axon outgrowth
neurite outgrowth ([2]; FK506 0.1 and 10 nM): Progressively greater outgrowth
concentration required for maximal outgrowth ([2]; FK506 alone): 1 µM
lowest concentration producing a noticeable increase in growth ([2]; FK506 alone): 1 nM
lowest concentration producing detectable augmentation of outgrowth ([2]; FK506 alone): 1 pM
time at which growth begins to plateau [2]: 5 to 6 days
time by which some outgrowth is evident [2]: ≤ 1 days
displacement of [3H]FK506 autoradiographic grains [3]: autoradiographic grains are abolished
IC50 ([4]; untreated PC-12 cell homogenates, 250 pM radioligand, read-out: Fifty percent inhibition of [3H]FK506 binding): 1 to 2 nM

[3H]FK506 binding Bmax ([5]; adult rat, cerebral cortex): 48.0 pmol/mg protein
[3H]FK506 binding Bmax ([5]; adult rat, sciatic nerve): 22.1 pmol/mg protein
[3H]FK506 binding Bmax ([5]; adult rat, spleen): 8.0 pmol/mg protein
[3H]FK506 binding Bmax ([5]; adult rat, thymus): 9.5 pmol/mg protein
[3H]FK506 binding Bmax ([5]; neonatal rat, forebrain): 25.5 pmol/mg protein
[3H]FK506 binding Bmax ([5]; neonatal rat, growth cones): 10.2 pmol/mg protein
Compound: [3H]CC([3H])C[C@@H]1/C=C(\C)C[C@H](C)C[C@H](OC)[C@H]2O[C@@](O)(C(=O)C(=O)N3CCCC[C@H]3C(=O)O[C@H](/C(C)=C/[C@@H]3CC[C@@H](O)[C@H](OC)C3)[C@H](C)[C@@H](O)CC1=O)[C@H](C)C[C@@H]2OC (some centres unmarked) [[^3 H]FK506]

Compound: CO[C@H]1C[C@@H]2CC[C@@H](C)[C@@](O)(O2)C(=O)C(=O)N2CCCC[C@H]2C(=O)O[C@H]([C@H](C)C[C@@H]2CC[C@@H](O)[C@H](OC)C2)CC(=O)[C@H](C)/C=C(\C)[C@@H](O)[C@@H](OC)C(=O)[C@H](C)C[C@H](C)/C=C/C=C/C=C/1C [rapamycin]
kind of effect on neuritic processes [1]: augments the number of processes as well as their length
combined effect of FK506 and rapamycin ([1]; FK506 plus rapamycin): additive
neurite outgrowth ([1]; rapamycin 1 nM): major neurite outgrowth
blockade of the neurotrophic actions of FK506 ([1]; rapamycin 1 μM): fails to block the neurotrophic actions of FK506
blockade of FK506 effect on outgrowth ([2]; rapamycin 1 μM with FK506 1 μM): completely blocks the effects of FK506; also recorded: completely inhibits axon outgrowth in the presence of FK506

[3H]FK506 binding following NGF treatment [4]: increases markedly
[3H]FK506 binding following NGF treatment ([4]; by 20 hr): triples
Compound: nerve growth factor [NGF]
concentration for maximal augmentation of neurite outgrowth ([1]; NGF alone): 50 to 100 ng/mL
NGF concentration for half maximal outgrowth ([1]; in the absence of FK506): 5 ng/mL
neurite/axon outgrowth ([2]; NGF 100 ng/ml): markedly increases the number and length of ganglia processes; also recorded: abundant axon outgrowth
time at which growth begins to plateau [2]: 5 to 6 days
time by which some outgrowth is evident [2]: ≤ 1 days
